Among the data in patent publication US6413959B1, “Method of treating depression with arylglycinamide derivatives” (Boehringer Ingelheim KG, priority 1995, dated 2002) are Ki, ED50 and melting point values, retold here.

The target in series [1] is T1, NK1-receptor (substance P-receptor) (Homo sapiens, UniProt P25103).
T1 construct: expressed in transfected cells; host or cells: IM-9 human lymphoblastoma cells
Nature of the series: NK1-receptor affinity, displacement of 125I-labelled substance P on IM-9 cells. In kind it is binding. Conditions: human lymphoblastoma cells (IM-9) with cloned NK1-receptors. A general note: Loss of bound radioactivity is the signal in a displacement assay; it reports binding, not function.

The target of series [2] is T2, NK1 (Cavia porcellus, UniProt P30547).
T2 construct: Guinea pigs weighing 300-500 grams were anaesthetised with pentobarbital; from tissue; host or cells: whole anaesthetised guinea pig (in vivo)
T2 sequence (P30547 whole entry): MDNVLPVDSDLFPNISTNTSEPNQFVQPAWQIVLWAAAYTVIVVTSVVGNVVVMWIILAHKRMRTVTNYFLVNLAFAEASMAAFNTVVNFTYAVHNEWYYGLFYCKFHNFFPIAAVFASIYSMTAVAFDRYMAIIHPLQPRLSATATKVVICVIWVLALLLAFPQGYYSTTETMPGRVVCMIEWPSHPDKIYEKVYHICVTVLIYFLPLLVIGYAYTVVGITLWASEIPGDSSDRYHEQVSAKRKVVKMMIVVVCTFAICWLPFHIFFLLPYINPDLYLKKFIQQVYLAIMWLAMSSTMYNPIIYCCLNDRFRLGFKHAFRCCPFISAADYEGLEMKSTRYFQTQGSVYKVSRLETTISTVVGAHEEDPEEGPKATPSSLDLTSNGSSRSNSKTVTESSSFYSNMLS
The series is described as follows: Inhibition of the lowering of blood pressure caused by NK1 in anaesthetised guinea pigs. The format is in vivo. Conditions: guinea pig, iv, antagonist given by intraduodenal route, NK1-agonist [βAla4, Sar9, Met(O2)11] SP(4-11) 0.2 μmol/kg i.v., read-out: ID50 (dose which inhibits the lowering of blood pressure caused by the NK1-agonist by 50%).

T1 sequence (P25103 whole entry): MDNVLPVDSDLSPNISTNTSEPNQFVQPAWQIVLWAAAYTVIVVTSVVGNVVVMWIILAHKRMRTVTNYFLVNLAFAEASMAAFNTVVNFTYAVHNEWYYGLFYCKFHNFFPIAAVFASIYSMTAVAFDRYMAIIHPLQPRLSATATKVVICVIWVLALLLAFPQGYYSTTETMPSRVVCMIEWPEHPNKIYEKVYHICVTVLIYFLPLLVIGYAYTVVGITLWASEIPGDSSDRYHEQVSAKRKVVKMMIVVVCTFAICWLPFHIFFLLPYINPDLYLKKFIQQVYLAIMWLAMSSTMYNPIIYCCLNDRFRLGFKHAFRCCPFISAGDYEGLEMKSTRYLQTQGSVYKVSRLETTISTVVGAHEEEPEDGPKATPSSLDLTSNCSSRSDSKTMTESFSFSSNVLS

For the molecule `CN(CCc1cc(C(F)(F)F)cc(C(F)(F)F)c1)C(=O)C(c1ccccc1)N1CCN(C2CCCCC2)CC1` (centres unmarked) [Example 5], the melting point is 158 to 164 °C. In series [1], this molecule yielded a Ki of 1.3 nM. The ED50 in series [2] worked out at 1.4 mg/kg.
Take `CN(CCc1cc(C(F)(F)F)cc(C(F)(F)F)c1)C(=O)C(c1ccccc1)N1CCC(N2CCCC2)CC1` (centres unmarked) [Example 52]: the melting point was in the range of 133 to 143 °C. This molecule also showed an inhibition constant Ki in series [1] of 1.1 nM.
Consider `CN(CCc1cc(C(F)(F)F)cc(C(F)(F)F)c1)C(=O)C(c1ccc(Cl)c(Cl)c1)N1CCC(N2CCCCC2)CC1` (centres unmarked) [Example 59], for which the melting point was 244 to 246 °C (dec.). Further, the affinity in series [1], expressed as Ki, was 4.2 nM.
For `CN(CCc1cc(C(F)(F)F)cc(C(F)(F)F)c1)C(=O)C(c1ccccc1)N1CCN(CC2CC2)CC1` (centres unmarked) [Example 66] the same measures were 113 to 117 °C (dec.) and 1.4 nM.
With `CN(CCc1cc(C(F)(F)F)cc(C(F)(F)F)c1)C(=O)C(c1ccccc1)N1CCN(C2CCC2)CC1` (centres unmarked) [Example 68], the melting point was 236 to 238 °C (dec.). This molecule also displayed a Ki in series [1] of 1.5 nM.

As a reminder, the Ki is the dissociation constant of the complex between target and ligand, obtained from inhibition or displacement. In general, melting point refers to the temperature, or range, at which the solid turns liquid.
